Data: patent US20120178786A9, “Use of tetramic acid derivatives for controlling pests by drenching, drip application, or dip application” (priority 2006, published 2012)

Tests used:
[1] = tested on: MYZUPE; experiment: Example 1: irrigation experiment in pots, Abbott efficacy; assay type: in vivo, Myzus persicae
Procedure: In an irrigation experiment carried out in 0.5-1-pots, Chinese cabbage, Savoy cabbage, bell peppers and broad beans which had been potted three days earlier are watered, in two replications, with 50 ml of active substance solution containing the active substance I-4 (cis isomer) at the application rates stated. The greenhouse temperature is 20° C. Infection with MYZUPE is accomplished seven and fourteen days after the application of the active substance. The test is evaluated in each case seven days after each infection by determining the activity with the aid of Abbott's formula.

[2] = tested on: Myzus persicae (MYZUPE); experiment: Example 4: drench of aubergine plants, Abbott efficacy; assay type: in vivo; details: 240 SC
Procedure: (§1) Aubergine plants (25 days after sowing) in 0.5-1-pots are drenched, in three replications, with 50 ml of active substance solution containing the active substance I-4 (cis isomer, formulation: 240 SC) at the application rate stated. The greenhouse temperature is 20° C. Infection with Aphis gossypii (APHIGO), Myzus persicae (MYZUPE) and Tetranychus urticae (TETRUR) is accomplished in each case seven and fourteen days after the application of the active substance. The test is evaluated in each case seven days after each infection by determining the activity with the aid of Abbott's formula.

[3] = tested on: Tetranychus urticae (TETRUR); experiment: as above; assay type: in vivo; details: 240 SC
Procedure: as §1

[4] = tested on: Aphis gossypii (APHIGO); experiment: as above; assay type: in vivo; details: infection 7 d after application, 240 SC
Procedure: as §1

[5] = tested on: Liriomyza sp.; experiment: Example 14: drench of bell pepper plots, kill rate of larvae in the leaves; assay type: in vivo; details: 40 + 10 + 10 mg/plant, 240 SC
Procedure: Plots approximately 2×5 m in size which contain bell pepper plants are treated, in three replications, against Liriomyza sp. The active substance example (I-4) cis isomer (240 SC) is drenched in an active substance solution at the application rate stated. The water application rate is 700 l/ha. Three treatments are carried out at intervals of 7 and 14 days. The test is evaluated in each case 7 days after the 2nd and 3rd treatment and 14 days after the 3rd treatment by scoring the kill rate of the larvae in the leaves.

[6] = tested on: citrus mealybug Pseudococcus citri (PSECCI); experiment: Example 12: drench of Coleus plants, Abbott efficacy; assay type: in vivo; details: 240 SC
Procedure: Coleus plants (approximate height 29 cm) in 6-inch pots which have been infected approximately 4 weeks before the treatment with citrus mealybug Pseudococcus citri (PSECCI) are drenched, in three replications, with an active substance solution containing the active substance I-4 (cis isomer, formulation: 240 SC) and, by way of comparison, with the commercial standard imidacloprid (240 SC) at the application rate stated. The greenhouse temperature is 29° C. The test is evaluated 7, 14, 21 and 28 days after the treatment by determining the efficacy with the aid of Abbott's formula.

[7] = tested on: Frankliniella occidentalis (FRANOC); experiment: Example 6: drench of verbena plants, Henderson-Tilton efficacy against nymphs; assay type: in vivo; details: 12 mg active substance/1 potting compost, 240 SC
Procedure: Verbena plants (approximate height 13 cm) in 6-inch-pots which are infected with Frankliniella occidentalis (FRANOC) are drenched, in four replications, with an active substance solution containing the active substance I-4 (cis isomer, formulation: 240 SC) and, by way of comparison, with the commercial standard imidacloprid (240 SC) at the application rate stated. The greenhouse temperature is 27-33° C. The test is evaluated 7, 14, 21 and 28 days after the treatment by determining the activity against nymphs on the leaves with the aid of the Henderson-Tilton method.

[8] = tested on: Trialeurodes vaporarium (TRIAVA); experiment: Example 9: drench of courgette plots, Abbott efficacy; assay type: in vivo; details: four treatments of 10 mg active substance/plant at 10-day intervals, I-4 240 SC, imidacloprid 200 SL
Procedure: Plots approximately 12 m^2 in size and containing courgette plants (47 days after sowing) are drenched, in three replications, against Trialeurodes vaporarium (TRIAVA) with 100 ml of an active substance solution per plant, containing the active substance I-4 (cis isomer, formulation: 240 SC) and, by way of comparison, with the standard imidacloprid (200 SL) at the application rate stated. Four applications are effected at 10-day intervals. The test is evaluated 21, 31, 38 and 45 days after the 1st treatment by determining the efficacy with the aid of Abbott's formula.

[9] = tested on: APHIGO; experiment: Example 2: drench of cucumber plants on rock wool, Abbott efficacy; assay type: in vivo, Aphis gossypii; details: 240 SC
Procedure: Cucumber plants cv. “Delikatess” which have been grown on rock wool are drenched, in six replications, one week after transplanting with in each case 100 ml active substance solution containing the active substance I-4 (cis isomer, formulation: 240 SC) at the application rate stated. The greenhouse temperature is 20° C. Infection with APHIGO is accomplished in each case seven and fourteen days after the application of the active substance. The test is evaluated in each case seven days after each infection by determining the activity with the aid of Abbott's formula.

[10] = infection 7 d after application, 10 mg active substance/plant
[11] = infection 7 d after application, 20 mg active substance/plant
[12] = infection 14 d after application, 10 mg active substance/plant
[13] = infection 14 d after application, 20 mg active substance/plant

## CCOC(=O)OC1=C(c2cc(C)ccc2C)C(=O)N[C@]12CC[C@@H](OC)CC2 [Example I-4]
[1]; Bell pepper, infection 7 d after application, 10 mg active substance/plant
  Abbott efficacy (%) against MYZUPE: 100%
[1]; Bell pepper, infection 7 d after application, 20 mg active substance/plant
  Abbott efficacy (%) against MYZUPE: 100%
[1]; Bell pepper, infection 14 d after application, 10 mg active substance/plant
  Abbott efficacy (%) against MYZUPE: 100%
[1]; Bell pepper, infection 14 d after application, 20 mg active substance/plant
  Abbott efficacy (%) against MYZUPE: 100%
[1]; Broad bean, infection 7 d after application, 10 mg active substance/plant
  Abbott efficacy (%) against MYZUPE: 83%
[1]; Broad bean, infection 7 d after application, 20 mg active substance/plant
  Abbott efficacy (%) against MYZUPE: 100%
[1]; Broad bean, infection 14 d after application, 10 mg active substance/plant
  Abbott efficacy (%) against MYZUPE: 23%
[1]; Broad bean, infection 14 d after application, 20 mg active substance/plant
  Abbott efficacy (%) against MYZUPE: 99%
[1]; Chinese cabbage, infection 7 d after application, 10 mg active substance/plant
  Abbott efficacy (%) against MYZUPE: 100%
[1]; Chinese cabbage, infection 7 d after application, 20 mg active substance/plant
  Abbott efficacy (%) against MYZUPE: 100%
[1]; Chinese cabbage, infection 14 d after application, 10 mg active substance/plant
  Abbott efficacy (%) against MYZUPE: 99%
[1]; Chinese cabbage, infection 14 d after application, 20 mg active substance/plant
  Abbott efficacy (%) against MYZUPE: 99%
[1]; Savoy cabbage, infection 7 d after application, 10 mg active substance/plant
  Abbott efficacy (%) against MYZUPE: 100%
[1]; Savoy cabbage, infection 7 d after application, 20 mg active substance/plant
  Abbott efficacy (%) against MYZUPE: 100%
[1]; Savoy cabbage, infection 14 d after application, 10 mg active substance/plant
  Abbott efficacy (%) against MYZUPE: 99%
[1]; Savoy cabbage, infection 14 d after application, 20 mg active substance/plant
  Abbott efficacy (%) against MYZUPE: 99%
[2]; [10]
  Abbott efficacy (%) against MYZUPE: 100%
[2]; [11]
  Abbott efficacy (%) against MYZUPE: 100%
[2]; [12]
  Abbott efficacy (%) against MYZUPE: 100%
[2]; [13]
  Abbott efficacy (%) against MYZUPE: 100%
[3]; [10]
  Abbott efficacy (%) against TETRUR: 96%
[3]; [11]
  Abbott efficacy (%) against TETRUR: 100%
[3]; [12]
  Abbott efficacy (%) against TETRUR: 73%
[3]; [13]
  Abbott efficacy (%) against TETRUR: 77%
[4]; 10 mg active substance/plant
  Abbott efficacy (%) against APHIGO: 99%
[4]; 20 mg active substance/plant
  Abbott efficacy (%) against APHIGO: 100%
[5]; 7 d after 2nd treatment
  Efficacy (% Abbott) against Liriomyza sp.: 66.7 % Abbott
[5]; 7 d after 3rd treatment
  Efficacy (% Abbott) against Liriomyza sp.: 100 % Abbott
[5]; 14 d after 3rd treatment
  Efficacy (% Abbott) against Liriomyza sp.: 81.8 % Abbott
[6]; 7 d after treatment, 24 mg active substance/1 potting compost
  Abbott efficacy (%) against PSECCI: 63%
[6]; 14 d after treatment, 24 mg active substance/1 potting compost
  Abbott efficacy (%) against PSECCI: 91%
[6]; 21 d after treatment, 24 mg active substance/1 potting compost
  Abbott efficacy (%) against PSECCI: 94%
[6]; 28 d after treatment, 24 mg active substance/1 potting compost
  Abbott efficacy (%) against PSECCI: 93%
[7]; 7 d after treatment
  Henderson-Tilton efficacy (%) against FRANOC: 100%
[7]; 14 d after treatment
  Henderson-Tilton efficacy (%) against FRANOC: 100%
[7]; 21 d after treatment
  Henderson-Tilton efficacy (%) against FRANOC: 90%
[7]; 28 d after treatment
  Henderson-Tilton efficacy (%) against FRANOC: 100%
[8]; 21 d after 1st treatment
  Abbott efficacy (%) against TRIAVA: 57.5%
[8]; 31 d after 1st treatment
  Abbott efficacy (%) against TRIAVA: 85.9%
[8]; 38 d after 1st treatment
  Abbott efficacy (%) against TRIAVA: 88.5%
[8]; 45 d after 1st treatment
  Abbott efficacy (%) against TRIAVA: 85.7%
[9]; [10]
  Abbott efficacy (%) against APHIGO: 100%
[9]; [11]
  Abbott efficacy (%) against APHIGO: 100%
[9]; infection 7 d after application, 40 mg active substance/plant
  Abbott efficacy (%) against APHIGO: 100%
[9]; [12]
  Abbott efficacy (%) against APHIGO: 91%
[9]; [13]
  Abbott efficacy (%) against APHIGO: 96%
[9]; infection 14 d after application, 40 mg active substance/plant
  Abbott efficacy (%) against APHIGO: 99%

## O=[N+]([O-])NC1=NCCN1Cc1ccc(Cl)nc1 [Imidacloprid, imidacloprid, reference compound]
[6]; 7 d after treatment, 12 mg active substance/1 potting compost
  Abbott efficacy (%) against PSECCI: 30%
[6]; 14 d after treatment, 12 mg active substance/1 potting compost
  Abbott efficacy (%) against PSECCI: 35%
[6]; 21 d after treatment, 12 mg active substance/1 potting compost
  Abbott efficacy (%) against PSECCI: 19%
[6]; 28 d after treatment, 12 mg active substance/1 potting compost
  Abbott efficacy (%) against PSECCI: 16%
[7]; 7 d after treatment
  Henderson-Tilton efficacy (%) against FRANOC: 100%
[7]; 14 d after treatment
  Henderson-Tilton efficacy (%) against FRANOC: 100%
[7]; 21 d after treatment
  Henderson-Tilton efficacy (%) against FRANOC: 49%
[7]; 28 d after treatment
  Henderson-Tilton efficacy (%) against FRANOC: 100%
[8]; 21 d after 1st treatment
  Abbott efficacy (%) against TRIAVA: 88.1%
[8]; 31 d after 1st treatment
  Abbott efficacy (%) against TRIAVA: 74.0%
[8]; 38 d after 1st treatment
  Abbott efficacy (%) against TRIAVA: 77.2%
[8]; 45 d after 1st treatment
  Abbott efficacy (%) against TRIAVA: 63.7%
